Like-named read-outs stand apart in the source and are kept apart here.
Legend:
[1] = QWBA tissue distribution of [14C] Compound 1, albino Wistar Han rats (PO); format: in vivo; settings: albino male WH rats, 20 mg/kg PO
Experimental: (§1) This study was conducted to determine the tissue distribution of drug-related radioactivity following a single oral (PO) (20 mg/kg) or intravenous (IV) (5 mg/kg) administration of [^14C]
(§2) Ten adult male pigmented Long-Evans (LE) rats (Group 1), 1 adult male LE rat (Group 2), and 3 albino Wistar Han (WH) rats (Group 3) received a single oral 20 mg/kg (Groups 1 and 3) or IV 5 mg/kg (Group 2) dose of [^14C] […] The formulation was prepared at a target dose of 5 mg (IV) or 20 mg (PO) […]
(§3) The carcasses were frozen in hexane dry-ice and stored at or below −20° C. prior to processing for QWBA. Each carcass was embedded, cut into sagittal sections, and mounted for QWBA. […] The lower limit of quantitation was 0.105 μg equiv/g.

[2] = test system: AP activity; assay: cells; settings: Oryctolagus cuniculus, Erythrocyte, read-out: IC50 for rabbit erythrocyte hemolysis
[3] = Ocular tissue distribution and pharmacokinetics, 15 mg/kg BID oral, nonpigmented New Zealand White rabbits (Example 7); format: in vivo
Experimental: For Groups 2 through 4, blood (approximately 2 mL) was collected via a jugular vein using a syringe and needle and was transferred into tubes containing K2EDTA at approximately 12 hours after the a.m. dose on Day 15 from the two animals designated for sacrifice at approximately 240 hours after the a.m. dose on Day 15. For Groups 2 through 4, two animals/group/time point were sacrificed via an overdose of sodium pentobarbital prior to dosing on Day 15 and at approximately 1, 6, 24, 96, 168, and 240 hours after the a.m. dose on Day 15. Blood (approximately 2 mL) was collected from all animals at sacrifice into tubes containing K2EDTA via exsanguination (cardiac puncture). Blood was maintained on wet ice, in chilled cryoracks, or at approximately 5° C. prior to centrifugation to obtain plasma. Centrifugation began within 1 hour of collection (Deviation). Plasma was placed into 96-well tubes with barcode labels. Plasma was maintained on dry ice prior to storage at approximately −70° C. At the time of sacrifice, both eyes were enucleated, and the following tissues were collected. Each eye was flash-frozen in liquid nitrogen for 15 to 20 seconds. The enucleated eye was placed on dry ice or stored at approximately −70° C. for at least 2 hours. Within approximately 3 days, the frozen matrices were collected as right and left eyes for each matrix into the specific tube type listed. At the time of frozen collection, the ocular tissues were rinsed with saline and blotted dry (as appropriate), weighed, and placed on dry ice. All ocular tissues were collected as single samples.

[4] = QWBA tissue distribution of [14C] Compound 1, pigmented Long-Evans rats (PO, IV); format: in vivo; settings: male LE rats, 20 mg/kg PO
Experimental: as §1, §2, §3

[5] = Choroid-RPE (OU), male NZW rabbits, Group 4, Day 15, 15 mg/kg/dose BID oral (30 mg/kg/day)
[6] = ICB (OU), male NZW rabbits, Group 4, Day 15, 15 mg/kg/dose BID oral (30 mg/kg/day)
[7] = NZW rabbits, Day 15, 15 mg/kg BID, 96 hr
[8] = NZW rabbits, Day 15, 15 mg/kg BID, 168 hr
[9] = NZW rabbits, Day 15, 15 mg/kg BID, 240 hr
[10] = New Zealand White, rabbit, choroid-RPE, oral, NZW rabbits, Day 15, 15 mg/kg BID, read-out: Mean Choroid-RPE Concentration
[11] = New Zealand White, rabbit, iris-ciliary body, oral, NZW rabbits, Day 15, 15 mg/kg BID, read-out: Mean Iris-Ciliary Concentration
[12] = New Zealand White, rabbit, plasma, oral, NZW rabbits, Day 15, 15 mg/kg BID, read-out: Mean Plasma Concentration
[13] = New Zealand White, rabbit, retina, oral, NZW rabbits, Day 15, 15 mg/kg BID, read-out: Mean Retina Concentration
[14] = New Zealand White, rabbit, plasma, male NZW rabbits, Group 4, Day 15, 15 mg/kg/dose BID oral (30 mg/kg/day)
[15] = Retina (OU), male NZW rabbits, Group 4, Day 15, 15 mg/kg/dose BID oral (30 mg/kg/day)
[16] = plasma, male NZW rabbits, Group 4, Day 15, 15 mg/kg/dose BID oral (30 mg/kg/day)

SMILES: CC(=O)c1nn(CC(=O)N2C[C@H](F)C[C@H]2C(=O)Nc2cccc(Br)n2)c2ccc(-c3cnc(C)nc3)cc12 [Compound 1, (2S,4R)-1-(2-(3-Acetyl-5-(2-methylpyrimidin-5-yl)-1H-indazol-1-yl)acetyl)-N-(6-bromopyridin-2-yl)-4-fluoropyrrolidine-2-carboxamide]
- Concentration of radioactivity at Tmax, non-pigmented skin [1]: 2.98 μg equiv/g
- Concentration of radioactivity at Tmax, uvea of the non-pigmented eye [1]: 1.68 μg equiv/g
- Highest concentration of radioactivity in blood ([1]; 1 h post-dose): 2.77 μg equiv/g
- Concentration of radioactivity, uvea of the non-pigmented eye ([1]; 24 h): BQL
- Concentration of radioactivity, non-pigmented skin ([1]; 168 h): BQL
- IC50 [2]: 0.027 µM
- AUC0-12 [3, 5]: 1440 ng·h/g
- AUC0-240 [3, 5]: 2370 ng·h/g
- AUC(0-24) [3, 5]: 1830 ng·h/g
- AUC(0-t) [3, 5]: 1830 ng·h/g
- Ctrough [3, 5]: 50.7 ng/g
- DN AUC0-12 [3, 5]: 95.9 (h*ng/g)/(mg/kg/dose)
- DN AUC0-24 [3, 5]: 122 (h*ng/g)/(mg/kg/day)
- DN AUC0-240 [3, 5]: 158 (h*ng/g)/(mg/kg/day)
- DN Cmax [3, 5]: 19.8 (ng/g)/(mg/kg/day
- AUC0-12 [3, 6]: 356 ng·h/g
- AUC(0-24) [3, 6]: 453 ng·h/g
- AUC(0-t) [3, 6]: 453 ng·h/g
- Ctrough [3, 6]: 14.6 ng/g
- DN AUC0-12 [3, 6]: 23.7 (h*ng/g)/(mg/kg/dose)
- DN AUC0-24 [3, 6]: 30.2 (h*ng/g)/(mg/kg/day)
- DN Cmax [3, 6]: 4.33 (ng/g)/(mg/kg/day)
- Mean Choroid-RPE concentration [3, 7]: BLQ
- Mean plasma concentration [3, 7]: BLQ
- Mean retina concentration [3, 7]: BLQ
- Mean Choroid-RPE concentration [3, 8]: BLQ
- Mean plasma concentration [3, 8]: BLQ
- Mean retina concentration [3, 8]: BLQ
- Mean Choroid-RPE concentration [3, 9]: BLQ
- Mean plasma concentration [3, 9]: BLQ
- Mean retina concentration [3, 9]: BLQ
- concentration at 0 h [3, 10]: 40.3 ng/g
- concentration at 1 h [3, 10]: 296 ng/g
- concentration at 6 h [3, 10]: 68.6 ng/g
- concentration at 24 h [3, 10]: 14.9 ng/g
- Tmax ([3]; New Zealand White, rabbit, choroid-retinal pigment epithelium (choroid-RPE), Choroid-RPE (OU), male NZW rabbits, Group 4, Day 15, 15 mg/kg/dose BID oral (30 mg/kg/day)): 1 h
- Tmax ([3]; New Zealand White, rabbit, iris-ciliary body (ICB), ICB (OU), male NZW rabbits, Group 4, Day 15, 15 mg/kg/dose BID oral (30 mg/kg/day)): 1 h
- Cmax ([3]; New Zealand White, rabbit, iris-ciliary body (ICB), ICB (OU), male NZW rabbits, Group 4, Day 15, 15 mg/kg/dose BID oral (30 mg/kg/day), read-out: Cmax): 64.9 ng/g
- concentration at 1 h [3, 11]: 64.9 ng/g
- concentration at 6 h [3, 11]: 21.2 ng/g
- concentration at 24 h [3, 11]: 1.6 ng/g
- concentration at 0 h [3, 12]: 53.8 ng/mL
- concentration at 1 h [3, 12]: 558 ng/mL
- concentration at 6 h [3, 12]: 179 ng/mL
- concentration at 12 h ([3]; New Zealand White, rabbit, plasma, oral, NZW rabbits, Day 15, 15 mg/kg BID, 12 hr): 82.2 ng/mL
- concentration at 24 h [3, 12]: 11.7 ng/mL
- concentration at 0 h [3, 13]: 36.3 ng/g
- concentration at 1 h [3, 13]: 248 ng/g
- concentration at 6 h [3, 13]: 86.1 ng/g
- concentration at 24 h [3, 13]: 9.18 ng/g
- Tmax ([3]; New Zealand White, rabbit, Retina (OU), male NZW rabbits, Group 4, Day 15, 15 mg/kg/dose BID oral (30 mg/kg/day)): 1 h
- Tmax [3, 14]: 1 h
- half-life [3, 14]: 4.53 h
- AUC0-12 [3, 15]: 1420 ng·h/g
- AUC0-240 [3, 15]: 2160 ng·h/g
- AUC(0-24) [3, 15]: 1830 ng·h/g
- AUC(0-t) [3, 15]: 1830 ng·h/g
- Ctrough [3, 15]: 60.4 ng/g
- DN AUC0-12 [3, 15]: 94.4 (h*ng/g)/(mg/kg/dose)
- DN AUC0-24 [3, 15]: 122 (h*ng/g)/(mg/kg/day)
- DN AUC0-240 [3, 15]: 144 (h*ng/g)/(mg/kg/day)
- DN Cmax [3, 15]: 16.5 (ng/g)/(mg/kg/day)
- AUC(0-t) ([3]; male, New Zealand White, rabbit, plasma, po, 15 mg/kg, plasma, male NZW rabbits, Group 4, Day 15, 15 mg/kg/dose BID oral (30 mg/kg/day), read-out: AUC0-12): 2930 ng·h/mL
- AUC(0-t) ([3]; male, New Zealand White, rabbit, plasma, po, 15 mg/kg, plasma, male NZW rabbits, Group 4, Day 15, 15 mg/kg/dose BID oral (30 mg/kg/day), read-out: AUC0-240): 3910 ng·h/mL
- AUC(0-t) ([3]; male, New Zealand White, rabbit, plasma, po, 15 mg/kg, plasma, male NZW rabbits, Group 4, Day 15, 15 mg/kg/dose BID oral (30 mg/kg/day), read-out: AUC0-t): 3490 ng·h/mL
- Cmax [3, 16]: 558 ng/mL
- Ctrough [3, 16]: 82.2 ng/mL
- DN AUC0-12 [3, 16]: 195 (h*ng/mL)/(mg/kg/dose)
- DN AUC0-24 [3, 16]: 233 (h*ng/mL)/(mg/kg/day)
- DN AUC0-240 [3, 16]: 261 (h*ng/mL)/(mg/kg/day)
- DN Cmax [3, 16]: 37.2 (ng/mL)/(mg/kg/day)
- Concentration of radioactivity at Tmax, adrenal gland cortex [4]: 33.5 μg equiv/g
- Concentration of radioactivity at Tmax, liver [4]: 52.0 μg equiv/g
- Concentration of radioactivity at Tmax, small intestine [4]: 77.9 μg equiv/g
- Concentration of radioactivity at Tmax, stomach [4]: 374 μg equiv/g
- Concentration of radioactivity at Tmax, tissues with the lowest concentrations (brain, spinal cord, bone, testis, lens of the eye) [4]: < 1.00 μg equiv/g
- Concentration of radioactivity at Tmax, urinary bladder [4]: 54.2 μg equiv/g
- Concentration of radioactivity at Tmax, white adipose [4]: 21.1 μg equiv/g
- t1/2, eye uvea [4]: 576 h
- t1/2, liver [4]: 48.5 h
- t1/2, pigmented skin [4]: 472 h
- Concentration of radioactivity at Tmax, bile ([4]; 1 h): 232 μg equiv/g
- Highest concentration of radioactivity in blood ([4]; 1 h post-dose): 5.28 μg equiv/g
- Concentration of radioactivity at Tmax, urine ([4]; 4 h): 66.2 μg equiv/g
- Concentration of radioactivity in blood ([4]; 8 h post-dose): 0.184 μg equiv/g
- Tissues with quantifiable concentrations at 672 h ([4]; 672 h): Only eye (uvea) and pigmented skin
